These results are taken from patent publication US8889733B2, “Artonin I to treat resistant infectious Staphylococcus aureus” (priority 2013, dated 2014).

Experiment [1] has as its system EMRSA-17. Briefly: Lucigenin CL assay of Reactive Oxygen Species (O2-) production. It is filed as cell-based, Staphylococcus aureus. Particulars: different concentrations, RLU. On the procedure: (§1) Assay Protocol: Protocol of Albesa et al (2002) was followed with slight modifications. 5×10^5 Cells were treated with the different concentrations of test compounds. Cells with compounds were incubated with leueigenin and filtered phosphate buffer saline. DMSO was added to the each well at the time of RLU determination to trigger the reaction. […] Positive control contains DMSO, but not the test compound. Determination by chemiluminescence (CL) was performed at room temperature by luminometer. The light emission results were measured in relative light unit (RLU).

Experiment [2] has as its system Clinical Isolates. The description is as above. It is filed as cell-based, Staphylococcus aureus. The settings on record: different concentrations, RLU. As for the experimental part: as §1
The test system of experiment [3] is EMRSA-17. Briefly: Membrane potential and integrity, DiBAC4(3) flow cytometry. In kind it is cell-based, Staphylococcus aureus. The settings on record: 20 μg/mL, 20 hrs, flow cytometry FL1. On the procedure:
(§2) Compound Treatment: 5×10^5 MDR S. aureus cells were treated with 20 μg/mL of test compounds and incubated for 20 hours, while the control cells were incubated without test compound.
(§3) Cell Staining: Staining procedure of Jepras et al. (1997) was adapted with slight modifications. Stock solutions (1 mg/mL) for the membrane potential probe DiBAC4(3) were made in absolute ethanol and stored at −20 ° C. […] Samples (1 mL) of exponentially growing S. aureus were taken from broth cultures. Samples were centrifuged at 11,000 rpm for 2 min and the supernatant was discarded. Cell pellets were resuspended in 4 mL of filtered phosphate-buffered saline (PBS). Fluorogenic substrates DiBAC4(3) were added to the cell suspensions to obtain a final concentration of 10 μg/mL. The suspensions were then incubated at 37° C. for 30 min. Cells were washed by centrifugation in the PBS buffer and then analyzed by flow cytometry.
(§4) Flow cytometry data acquisition: The flow cytometric assay was performed on a Becton Dickinson FACSCaliber™ flow cytometer. A total of 50,000 cells were counted by using Cell Quest software (BD) for data acquisition and analysis. The emission maximum of DiBAC4(3) was at 516 nm and its green fluorescence was detected in the channel FL1 (Veal et al., 2000).

A further experiment relates to clinical isolate. Described as above. It is filed as cell-based, Staphylococcus aureus. The settings on record: 20 μg/mL, 20 hrs, flow cytometry FL1. As for the experimental part: as §2, §3, §4
In general terms: Flow cytometry measures light scatter and fluorescence of single cells or particles in a stream.

The subject of another experiment is MRSA-252. The experiment can be described thus: High throughput screening assay (MABA) against MDR S. aureus. In kind it is cell-based. Particulars: Staphylococcus aureus, 20 μg/mL, 20 hours, Alamar Blue. On the procedure: (§5) High throughput screening assay (MABA) against MDR S. aureus:
(§6) Inocula Preparation: Isolated colonies of S. aureus were picked and inoculated into Muller Hinton broth and incubated at 37° C. for 20 hours. After 20 hours, the turbidity was checked and adjusted to 0.5 McFarland standards.
(§7) Assay Protocol: Assays were performed according to method reported by Sarkar et al. (2007) with slight modifications. Flat bottom, polystyrene, non-tissue culture treated, sterile 96-well micro titer plates were used with proper labeling. Stock solutions of test compounds 1 and 2 were prepared in DMSO with the concentration of 1 mg/mL. 4 μL from stock solutions were distributed in each well, except the control wells of the plate. Two fold serial dilutions using sterile broth were made with the final volume of […], in each well. The bacterial suspensions (cone 5×10^5) were then added in each wells. The plate was sealed by parafilm and incubated at 37° C. for 20 hours. The plates were prepared in triplicate. Next day, 10% Alamar Blue Dye was added to the culture and kept on shaking incubator at 37° C. for 3 to 4 hours. The color change was then assessed visually, qualitatively and quantitatively by recording absorbance at 570 and 600 nm by a spectrophotometer. The percentage inhibition of compound 1 and 2 against EMRSA-16, and 17, MRSA-252 and clinical isolate by MABA assays are given in Table 1.
(§8) Percentage reduction and inhibition of Alamar blue dye was calculated by using the following formula.
(§9) Here control wells contain only media plus Alamar Blue, while the test wells contains both Alamar Blue with the test compounds.
(In general: Resazurin is reduced to fluorescent resorufin, in cell work by metabolically active cells.)

In experiment [4] the test system is EMRSA-17. The description is as above. In kind it is cell-based. Particulars: Staphylococcus aureus, 20 μg/mL, 20 hours, Alamar Blue. On the procedure: as §5, §6, §7, §8, §9
A further experiment concerns EMRSA-16. Described as above. In kind it is cell-based. The settings on record: Staphylococcus aureus, 20 μg/mL, 20 hours, Alamar Blue. As for the experimental part:
as §5, §6, §7, §8, §9

Experiment [5] concerns Clinical Isolates. The description is as above. It is filed as cell-based. Particulars: Staphylococcus aureus, 20 μg/mL, 20 hours, Alamar Blue. On the procedure:
as §5, §6, §7, §8, §9

The subject of experiment [6] is EMRSA-17. Briefly: Reversal of Multi-Drug Resistance (MIC/FIC of antibiotics combined with compound 1). Particulars: Staphylococcus aureus, Compound 1 alone, read-out: MIC (b). It is filed as cell-based, Staphylococcus aureus. On the procedure: (§10) Assay Protocol: Protocol of Chung et al, (2001), with slight modifications, was followed. 5×10 MDR S. aureus cells were treated with 20 μg/mL of test compounds and incubated for 20 hours. Control cells were not exposed to any test compound and antibiotic. In 96-well plate, increasing concentration of antibiotics, along with the fixed concentration of test compounds were added. Inoculum of 5×10^5 cells was applied to all wells. The presence or absence of growth in all combination wells were noted visually and by using the dye Alamar blue.
(§11) Fractional inhibitory concentrations were calculated by the above cited formulae. • FIC of Antibiotic a (FICa)=MIC of Antibiotic a in combination/MIC of antibiotic a alone • FIC of Compound b (FICb)=MIC of Compound b in combination/MIC of compound b alone
(§12) The sum of Fractional Inhibitory Concentration (FICs) index of: (FICa)+(FICb)=(FICs)

Experiment [7] concerns Clinical Isolates. Described as above. It is filed as cell-based, Staphylococcus aureus. Particulars: Staphylococcus aureus, Compound 1 alone, read-out: MIC (b). As for the experimental part: as §10, §11, §12
Experiment [8] deals with MDR Efflux Pumps of clinical isolates. Briefly: EtBr accumulation/efflux flow cytometry assay. It is filed as cell-based, Staphylococcus aureus. Particulars: compound 1 in combination with antibiotics, 3 hrs, FL2. On the procedure: (§13) Assay Protocol: Protocol of Kalle et al, (2009) was employed with some modifications. Control cells were not exposed with any test compound or antibiotic. Combination of test compound and antibiotics were incubated for 3 hrs in test cells. Ethiduim bromide (EtBr) was added in to the Eppendorff, containing the combination of both drugs and compound. Cells with the drugs were also incubated and stained with EtBr. Control and treated samples were centrifuged for 3 min at 13,000 rpm. Supernatant was […] and the pallet was washed with PBS. Positive control contains ethidium bromide, while negative control was EtBr free. Flow cytometric analysis was carried out done by using the FL2 channel.
(§14) Flow cytometry data acquisition: The flow cytometric assay was performed. A total of 50,000 cells were counted by using Cell Quest software (BD) for data acquisition and analysis. EtBr was excited at 488 nm and the fluorescence detected through a 585 nm filter (FL-2 channel).

In experiment [9] the test system is MDR Efflux Pumps of EMRSA-17. The experiment can be described thus: EtBr accumulation/efflux flow cytometry assay. In kind it is cell-based, Staphylococcus aureus. Particulars: compound 1 in combination with antibiotics, 3 hrs, FL2. As for the experimental part:
as §13, §14

Each structure is given as a SMILES string.

On to `CC(C)=CCc1c(O)ccc(C(=O)[C@@H]2C(c3ccc(O)cc3O)CC(C)=C[C@@H]2c2c(O)cc3oc(-c4ccc(O)cc4O)cc(=O)c3c2O)c1O` (stereo partly drawn) [Compound 1, artonin I], for which the “production of O2- (ROS), lucigenin chemiluminescence” value with EMRSA-17 [1] and in the experiment on Clinical Isolates [2] was “more production of O2^− was observed” throughout. Besides, the “membrane potential and integrity, DiBAC4(3) fluorescence” value in the experiment with EMRSA-17 [3] was “majority of population was shifted in a rapid regular pattern due to the change in membrane potential”; in the experiment on clinical isolate, “bulky peaks steadily moved towards the area of increasing fluorescence”. Moreover, the inhibition at 20 µg/mL was determined as 69.4% in the experiment with MRSA-252, 91.1% with EMRSA-17 [4], 88.7% in the experiment on EMRSA-16 and 88.9% in the experiment with Clinical Isolates [5]. Moreover, the MIC with EMRSA-17 [6] and with Clinical Isolates [7] was 25 mg/L each time. For the same molecule, the “efflux activity, EtBr accumulation” value in [8] and in experiment [9] was “decrease in the efflux activity was observed” throughout.

As usually defined, the inhibition is the percentage by which the read-out fell short of the control. A low value points to little suppression. By MIC is commonly meant the lowest concentration found to suppress growth.
